From paper PMC6321168, “Comparative Study on Excretive Characterization of Main Components in Herb Pair Notoginseng-Safflower and Single Herbs by LC–MS/MS” (Pharmaceutics, 2018)

Assay: Fecal excretion study in rats after oral NS, SF or CNS (LC–MS/MS)
Type: in vivo
Conditions: rat feces
Experimental: The animal room was set at constant temperature of 20 ± 2 °C with humidity of 50 ± 20% and 12/12 h light/dark cycle.
Eighteen male rats were fasted for 12 h before starting the experiment. The rats were divided into three groups at random (n = 6) and received NS (60 mg/kg), SF (50 mg/kg), and NS (60 mg/kg) + SF (50 mg/kg), respectively, by oral gavage. The rats were placed in separate metabolic cages. The urine samples were collected at 0–2, 2–4, 4–6, 6–8, 8–12, 12–24, 24–36, 36–48, 48–72, 72–96, and 96–120 h. The feces samples were collected at 0–4, 4–8, 8–12, 12–24, 24–36, 36–48, 48–72, 72–96, and 96–120 h. The urine volume was recorded and the dry feces were measured for each collection period. Samples were stored at −80 °C until analysis.
Feces samples were homogenized in ultrapure water (1 g/15 mL), soaked for 30 min, ultrasonically extracted for 30 min and centrifuged at 9000 rpm for 8 min. An aliquot of 200 μL feces water extraction solution was mixed with 10 μL of IS and then extracted three times with water-saturated n-BuOH (150 μL). The upper organic phase was combined and evaporated to dryness using a ZLS-2 vacuum centrifugal concentrator. The residue was treated as the urine sample and a 1-μL aliquot was injected for LC–MS analysis.
Ultra fast liquid chromatography (UFLC) analysis was performed using a Shimadzu UFLC system (DGU-20A3R Degasser; LC-20AD pump; SIL-20AXR Autosampler; CTO-20AC Column Oven) (Nakagyo-Ku, Koyoto, Japan). […] Because of the different endogenous substances in the urine and feces samples, different elution gradients were used to alleviate the matrix effects for the analytes.
The mass spectrometric detection was performed on an ABSciex 4500 Qtrap mass spectrometer (ABSciex, Foster City, CA, USA) equipped with a negative electrospray ionization (ESI) interface using multiple reaction monitoring (MRM). The MS parameters were optimized under the selected ion monitoring conditions as follows: curtain gas, 35 psi; ionspray voltage, 4500 V; turbo gas temperature, 450 °C; GS1, 45 psi; GS2, 45 psi. All data were acquired and analyzed by Analyst software (Versions 1.6.2) from ABSciex.
The accumulative excretion percentage was calculated for each analyte as follows. Excretion at time (t) = [concentration of the analyte (ng/mL) at t] × total urine (or feces) volume (mL) at t. The cumulative excretion up to time t (mg) was expressed as a percent (%) cumulative excretion by dividing by the total amount of the analyte ingested (mg): % Cumulative Excretion = 100 × (Σt excretiont) total ingested.

Compound `CC(C)=CCC[C@](C)(O[C@@H]1O[C@H](CO)[C@@H](O)[C@H](O)[C@H]1O)[C@H]1CC[C@]2(C)[C@@H]1[C@H](O)C[C@@H]1[C@@]3(C)CC[C@H](O[C@@H]4O[C@H](CO)[C@@H](O)[C@H](O)[C@H]4O[C@@H]4O[C@H](CO)[C@@H](O)[C@H](O)[C@H]4O)C(C)(C)[C@@H]3CC[C@]12C` [ginsenoside Rd] has a concentration at 4 h (male, Sprague Dawley, oral CNS 110 mg/kg, 4 h) of 0.204 ± 0.283 µg/mL, a concentration at 8 h (male, Sprague Dawley, oral CNS 110 mg/kg, 8 h) of 0.274 ± 0.065 µg/mL and a concentration at 12 h (male, Sprague Dawley, oral CNS 110 mg/kg, 12 h) of 0.164 ± 0.012 µg/mL. The concentration at 24 h (male, Sprague Dawley, oral CNS 110 mg/kg, 24 h) was 0.119 ± 0.051 µg/mL, the concentration at 36 h (male, Sprague Dawley, oral CNS 110 mg/kg, 36 h) was 0.653 ± 0.041 µg/mL and the concentration at 48 h (male, Sprague Dawley, oral CNS 110 mg/kg, 48 h) was 0.658 ± 0.072 µg/mL. The concentration at 72 h (male, Sprague Dawley, oral CNS 110 mg/kg, 72 h) was 0.153 ± 0.072 µg/mL, the concentration at 96 h (male, Sprague Dawley, oral CNS 110 mg/kg, 96 h) was 0.035 ± 0.034 µg/mL and the concentration at 4 h (male, Sprague Dawley, oral NS 60 mg/kg, 4 h) was 0.752 ± 0.079 µg/mL. It also gave a concentration at 8 h (male, Sprague Dawley, oral NS 60 mg/kg, 8 h) of 0.605 ± 0.022 µg/mL, a concentration at 12 h (male, Sprague Dawley, oral NS 60 mg/kg, 12 h) of 0.602 ± 0.049 µg/mL and a concentration at 24 h (male, Sprague Dawley, oral NS 60 mg/kg, 24 h) of 0.67 ± 0.034 µg/mL. The concentration at 36 h (male, Sprague Dawley, oral NS 60 mg/kg, 36 h) was 0.505 ± 0.014 µg/mL, the concentration at 48 h (male, Sprague Dawley, oral NS 60 mg/kg, 48 h) was 0.704 ± 0.026 µg/mL and the concentration at 72 h (male, Sprague Dawley, oral NS 60 mg/kg, 72 h) was 0.122 ± 0.005 µg/mL. For the same compound, the concentration at 96 h (male, Sprague Dawley, oral NS 60 mg/kg, 96 h) was 0.017 ± 0.001 µg/mL, the concentration at 120 h (male, Sprague Dawley, oral NS 60 mg/kg, 120 h) was 0.015 ± 0.002 µg/mL and the Accumulative excretion amount (oral CNS 110 mg/kg, 4 h) was 2.579 ± 3.701 µg. The Accumulative excretion percentage (oral CNS 110 mg/kg, 4 h) was 0.343±0.491%, the Excretion amount (oral CNS 110 mg/kg, 4 h) was 2.579 ± 3.701 µg and the Accumulative excretion amount (oral CNS 110 mg/kg, 8 h) was 6.687 ± 3.535 µg. The Accumulative excretion percentage (oral CNS 110 mg/kg, 8 h) was 0.883±0.462%, the Excretion amount (oral CNS 110 mg/kg, 8 h) was 4.108 ± 1.195 µg and the Accumulative excretion amount (oral CNS 110 mg/kg, 12 h) was 9.145 ± 3.524 µg. It also gave an Accumulative excretion percentage (oral CNS 110 mg/kg, 12 h) of 1.204±0.465%, an Excretion amount (oral CNS 110 mg/kg, 12 h) of 2.459 ± 0.753 µg and an Accumulative excretion amount (oral CNS 110 mg/kg, 24 h) of 11.000 ± 3.256 µg. The Accumulative excretion percentage (oral CNS 110 mg/kg, 24 h) was 1.453±0.432%, the Excretion amount (oral CNS 110 mg/kg, 24 h) was 1.855 ± 1.046 µg and the Accumulative excretion amount (oral CNS 110 mg/kg, 36 h) was 20.700 ± 5.415 µg. It also gave an Accumulative excretion percentage (oral CNS 110 mg/kg, 36 h) of 2.724±0.715%, an Excretion amount (oral CNS 110 mg/kg, 36 h) of 9.700 ± 2.660 µg and an Accumulative excretion amount (oral CNS 110 mg/kg, 48 h) of 30.478 ± 7.801 µg. It also gave an Accumulative excretion percentage (oral CNS 110 mg/kg, 48 h) of 4.011±1.032%, an Excretion amount (oral CNS 110 mg/kg, 48 h) of 9.778 ± 2.743 µg and an Accumulative excretion amount (oral CNS 110 mg/kg, 72 h) of 32.881 ± 8.515 µg. For the same compound, the Accumulative excretion percentage (oral CNS 110 mg/kg, 72 h) was 4.322±1.123%, the Excretion amount (oral CNS 110 mg/kg, 72 h) was 2.403 ± 1.477 µg and the Accumulative excretion amount (oral CNS 110 mg/kg, 96 h) was 33.451 ± 8.722 µg. For the same compound, the Accumulative excretion percentage (oral CNS 110 mg/kg, 96 h) was 4.403±1.154%, the Excretion amount (oral CNS 110 mg/kg, 96 h) was 0.570 ± 0.568 µg and the Accumulative excretion percentage (oral CNS 110 mg/kg, 120 h) was 4.404±1.151%. It also gave an Accumulative excretion amount (oral NS 60 mg/kg, 4 h) of 10.755 ± 3.385 µg, an Accumulative excretion percentage (oral NS 60 mg/kg, 4 h) of 1.232±0.395% and an Excretion amount (oral NS 60 mg/kg, 4 h) of 10.755 ± 3.385 µg. For the same compound, the Accumulative excretion amount (oral NS 60 mg/kg, 8 h) was 19.476 ± 6.086 µg, the Accumulative excretion percentage (oral NS 60 mg/kg, 8 h) was 2.244± 0.706% and the Excretion amount (oral NS 60 mg/kg, 8 h) was 8.721 ± 2.813 µg. For the same compound, the Accumulative excretion amount (oral NS 60 mg/kg, 12 h) was 28.152 ± 8.861 µg, the Accumulative excretion percentage (oral NS 60 mg/kg, 12 h) was 3.232±1.024% and the Excretion amount (oral NS 60 mg/kg, 12 h) was 8.676 ± 2.808 µg. The Accumulative excretion amount (oral NS 60 mg/kg, 24 h) was 37.713 ± 11.637 µg, the Accumulative excretion percentage (oral NS 60 mg/kg, 24 h) was 4.331±1.342% and the Excretion amount (oral NS 60 mg/kg, 24 h) was 9.562 ± 2.795 µg. For the same compound, the Accumulative excretion amount (oral NS 60 mg/kg, 36 h) was 45.004 ± 14.004 µg, the Excretion amount (oral NS 60 mg/kg, 36 h) was 7.290 ± 2.427 µg and the Accumulative excretion amount (oral NS 60 mg/kg, 48 h) was 55.154 ± 17.338 µg. It also gave an Accumulative excretion percentage (oral NS 60 mg/kg, 48 h) of 6.332±1.991%, an Excretion amount (oral NS 60 mg/kg, 48 h) of 10.151 ± 3.361 µg and an Accumulative excretion amount (oral NS 60 mg/kg, 72 h) of 56.907 ± 17.892 µg. For the same compound, the Accumulative excretion percentage (oral NS 60 mg/kg, 72 h) was 6.534±2.048%, the Excretion amount (oral NS 60 mg/kg, 72 h) was 1.753 ± 0.562 µg and the Accumulative excretion amount (oral NS 60 mg/kg, 96 h) was 57.148 ± 17.967 µg. It also gave an Accumulative excretion percentage (oral NS 60 mg/kg, 96 h) of 6.563±2.059%, an Excretion amount (oral NS 60 mg/kg, 96 h) of 0.241 ± 0.076 µg and an Accumulative excretion amount (oral NS 60 mg/kg, 120 h) of 57.371 ± 18.037 µg. For the same compound, the Accumulative excretion percentage (oral NS 60 mg/kg, 120 h) was 6.589±2.068% and the Excretion amount (oral NS 60 mg/kg, 120 h) was 0.223 ± 0.076 µg.
